From patent US9718769B2, “Pulverulent compositions of a complex between an acid and a metal and method of preparation thereof” (INNOV'IA 3I, priority 2012, dated 2017) come the findings set out here.

The test system of data set [1] is growing chickens. Kind of data set: Feeding growing chickens: growth performance. It counts as in vivo. Conditions: 46-day-old chickens, 0.3% in feed (0.24% finishing phase); mean ± standard deviation. As to the method:
(§1) One hundred and forty-seven commercial chickens (1 day old, 48 g) were housed from day 1 to day 46, including the starting phase (days 1-21) and the finishing phase (days 22-46). All the chickens were randomly distributed in seven equal groups (21 per group), and each group was made up of three subgroups of 7 birds each. Each subgroup was kept in an enclosure at a temperature of (28±2° C.), with controlled lighting conditions. All the chickens were offered a similar basic diet, with or without addition of DLM, HMTBA or HMTBA-Ca at levels of 0 (control) or 0.3% in the starting phase and 0 or 0.24% in the finishing phase (Table 4). All the chickens had free access to food and drinking water throughout the test period of 46 days. The weight of the chickens was measured every week and food intake was monitored throughout the experiment.
(§2) At the end of the experiment, the birds were weighed individually and sacrificed. The abdominal fat, the muscles of the thigh and of the breast were taken, lyophilized and weighed.

The test system of data set [2] is growing chickens. Kind of data set: Feeding growing chickens: apparent digestibility of nutrients. It counts as in vivo. Conditions: 0.3% in feed; for Apparent digestibility of ash / Apparent digestibility of crude fats / Apparent digestibility of crude proteins / Apparent digestibility of dry matter: 46-day chickens, mean ± standard deviation for 10 chickens. As to the method:
as §1
The excrement of the chickens was collected for the 3 days following the 42nd day of the experiment, were frozen and stored (at −20° C.) for later chemical analyses.

In data set [3] the test system is growing chickens. Kind of data set: Feeding growing chickens: composition of the carcass. The class given is in vivo. The following applies: for DB, weight of the muscles of the breast / DL, weight of the muscles of the thigh / PDAT, ratio of the weight of the abdominal fat to that of the eviscerated chicken / PDB, ratio of the weight of the muscles of the breast (without bone or skin) to that of the eviscerated chicken / PDL, ratio of the weight of the muscles of the thigh (without bone or skin) to that of the eviscerated chicken: 46-day chickens, mean ± standard deviation. As for the experimental part: as §1, §2

The test system of the next data set is laying hens. Description: Feeding laying hens: laying performance and egg parameters. It counts as in vivo. The following applies: for Albumen / Average weight of the eggs / Consumption index / Daily food intake / Laying frequency / Weight of eggs / Yolk / Final body weight: 0.13% methionine equivalent in feed, mean; for Final body weight: after 6 weeks. As for the experimental part:
Eighty laying hens aged 45 weeks were housed for 6 weeks and were distributed at random into […] equal groups (20 per group). Each hen was kept in an individual cage at a temperature of (20±2° C.) with controlled lighting conditions. All the hens were offered a similar basic diet, with or without addition of DLM, of HMTBA-Ca or of a 50/50 mixture (HMTBA-Ca: […] All the laying hens had free access to drinking water and were fed throughout the 6-week period of the experiment.

Data set [4] is described as follows: Crystallinity by DSC in isothermal mode and X-ray diffraction. It counts as physicochemical. The following applies: deduced from DSC (R) or X-ray diffraction (T7). As to the method:
Samples T7 and R were analysed by X-ray diffraction using a Bruker APEX-II Quasar diffractometer equipped with a molybdenum microsource (λ=0.71073 Å). Each sample was ground beforehand in a mortar for two minutes. Each of the powders thus obtained is then transferred to a capillary with diameter of 0.5 mm that is transparent to X-rays, and is then mounted on a goniometer. The recording characteristics are perfectly identical for each sample, namely: […]
(DSC measures the heat that a sample takes up or gives off during a temperature scan.)

The structures appear in SMILES notation. Entries after “also recorded” stand apart in the source; their conditions may differ. Marks after values point to notes of the source that are not given here.

For `CSCCC(N)C(=O)O` (racemic) [DLM, DL-methionine, reference compound], in the data set on growing chickens [1], the “Feeding:gain” value was 2.01 ± 0.10 g:g, the Final body weight is 3.17 ± 0.15^ab kg/chicken, the Food intake amounted to 141.51 ± 0.24 g/chicken/day and the “Gain in body weight” value is 70.47 ± 3.37^ab g/chicken/day. Moreover, in the data set on growing chickens [2], the “Apparent digestibility of ash” value is given as 56.02 ± 1.01^b %, the “Apparent digestibility of crude fats” value is on record as 86.15 ± 0.93%, the “Apparent digestibility of crude proteins” value is 63.70 ± 2.85^cd % and the “Apparent digestibility of dry matter” value was 78.22 ± 1.70^c %. Moreover, in the data set with growing chickens [3] (0.3% in feed), the “DB, weight of the muscles of the breast” value was 596.88 ± 56.68^abc g; the “DL, weight of the muscles of the thigh” value is 586.03 ± 23.43^ab g; the “PDAT, ratio of the weight of the abdominal fat to that of the eviscerated chicken” value is reported as 1.88 ± 0.43^a %; the “PDB, ratio of the weight of the muscles of the breast (without bone or skin) to that of the eviscerated chicken” value is 22.77 ± 1.44^b %. For the same molecule, the “PDL, ratio of the weight of the muscles of the thigh (without bone or skin) to that of the eviscerated chicken” value in the data set on growing chickens [3] (0.3% in feed) is listed as 20.12 ± 0.22^a %. For the same molecule, in the data set with laying hens (6 weeks), the Albumen is recorded as 38.38 g/egg, the “Average weight of the eggs” value amounted to 63.4 g/egg, the Consumption index is listed as 1.87 g feed/g egg and the Daily food intake is reported as 112.4 g/day. For the same molecule, in the data set with laying hens (6 weeks), the Laying frequency worked out at 95%, the Weight of eggs is 60.3 g/day and the Yolk is 16.38 g/egg. For the same molecule, the Final body weight in the data set with laying hens came out at 1834.9 g/hen.

For `CSCCC(O)C(=O)[O-].CSCCC(O)C(=O)[O-].[Ca+2]` (stereo not drawn) [HMTBA-Ca, (HMTBA)2Ca], in the data set with growing chickens [1], the “Feeding:gain” value is 1.91 ± 0.12 g:g, the Final body weight was 3.38 ± 0.28^ab kg/chicken, the Food intake is given as 144.53 ± 20.93 g/chicken/day and the “Gain in body weight” value is listed as 75.08 ± 6.18^ab g/chicken/day. Besides, in the data set with growing chickens [2], the “Apparent digestibility of ash” value was 44.62 ± 0.89^a %, the “Apparent digestibility of crude fats” value is 90.28 ± 0.20^c %, the “Apparent digestibility of crude proteins” value is given as 66.44 ± 0.37^cd % and the “Apparent digestibility of dry matter” value was 81.80 ± 0.32^d %. Also, in the data set on growing chickens [2] (chickens, 46 days), the “Digestibility of the nutrients relative to the other two forms of methionine (in words)” value is “far better digestibility”. Also, in the data set with growing chickens [3] (0.3% in feed), the “DB, weight of the muscles of the breast” value is on record as 617.54 ± 45.21^bc g; the “DL, weight of the muscles of the thigh” value was 588.64 ± 38.07^ab g; the “PDAT, ratio of the weight of the abdominal fat to that of the eviscerated chicken” value is recorded as 2.49 ± 0.59^b %; the “PDB, ratio of the weight of the muscles of the breast (without bone or skin) to that of the eviscerated chicken” value is given as 22.98 ± 3.00^b %. In addition, the “PDL, ratio of the weight of the muscles of the thigh (without bone or skin) to that of the eviscerated chicken” value in the data set with growing chickens [3] (0.3% in feed) was 22.06 ± 1.64^c %. The “Percentage of abdominal fat (in words)” value with growing chickens [3] (chickens, 0.3% in feed, 46 days) is on record as “increase in the percentage of abdominal fat”. In addition, in the data set on growing chickens [3] (chickens, 46 days), the “Weight of the muscles of the thigh and breast relative to DLM / the other groups (in words)” value was “significantly higher; also recorded: highest weight of muscles of the thigh and breast”. In the data set with laying hens (6 weeks), the Albumen came to 39.53 g/egg, the “Average weight of the eggs” value was found to be 64.9 g/egg, the Consumption index is 1.82 g feed/g egg and the Daily food intake is given as 112.7 g/day. In the data set on laying hens (6 weeks), the Laying frequency was 95%, the Weight of eggs amounted to 62.0 g/day and the Yolk stood at 16.47 g/egg. Also, in the data set with laying hens (6 weeks, relative to DLM), the “Albumen content of the eggs, more relative to the eggs of hens fed with DLM” value is reported as 3% and the “Average weight of the eggs, higher relative to that obtained with DLM” value was found to be 2.3%. The Final body weight with laying hens came out at 1897.2 g/hen.

For the molecule `CSCCC(O)C(=O)[O-].CSCCC(O)C(=O)[O-].[Ca+2]` (stereo not drawn) [R, (HMTBA)2Ca], in data set [4], the Degree of crystallinity is listed as 100%.
